This is an account of results in patent publication US11484567B2, “Use of immune suppressive domains as medicaments” (iSD Immunotech ApS, priority 2013, dated 2022).

Assay [1] concerns the target T1, STING (Homo sapiens, UniProt Q86WV6).
T1 construct: the C-terminal domain of STING was expressed with a HA-tag in HEK293 cells; expressed in transfected cells; host or cells: HEK293
Description: Pulldown of HA-tagged STING C-terminal domain with biotinylated INF ISD peptide and streptavidin coated beads, immunoblot. The class given is binding. For orientation: A western blot detects proteins with antibodies after separation by electrophoresis.

For assay [2], the system named is STING. The assay is described as above. The format is binding.
Assay [3] relates to BMDCs. Description: Cytokine release (type I IFN bioassay) from LPS-treated BMDCs pretreated with peptide. The format is cell-based.

T1 sequence (Q86WV6 162-379): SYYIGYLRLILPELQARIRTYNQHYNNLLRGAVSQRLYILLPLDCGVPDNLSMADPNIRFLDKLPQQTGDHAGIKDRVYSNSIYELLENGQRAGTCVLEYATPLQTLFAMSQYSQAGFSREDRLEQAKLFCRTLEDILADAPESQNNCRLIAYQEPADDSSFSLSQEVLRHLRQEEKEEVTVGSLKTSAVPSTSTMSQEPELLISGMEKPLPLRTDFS

In the case of “GLFGAIAGFIENGWEGCGGEKEKEK [INF ISD peptide]”, in assay [1], the “pulldown of STING deletion mutant DN5 (162-N)” value is on record as “readily pulled down”. For the same sequence, the “pulldown of wt STING” value in assay [2] is reported as “readily pulled down”. The “amounts of cytokines released by cells treated with LPS (FIG. 9)” value in assay [3] (BMDCs treated with LPS for 16 hours, pretreated with peptide, supernatants analyzed for type I IFN using bioassay) was “significantly lower amounts of cytokines”. Further, the “release of cytokines including pro-inflammatory cytokines such as TNFalpha and IL-6” value in assay [3] (pretreatment of cells with peptide, LPS (Example 3)) is recorded as “decrease in the release of cytokines”.
